Measurements reported in patent US7772271B2 (priority 2004, dated 2010).

Structure (SMILES)	melting point
CC(C)CS(=O)(=O)Nc1ccc(-c2c(C#N)c3ccc(Oc4nccnc4C#N)cc3n2CC2CC2)cc1 [Compound 3225]	194 to 197 °C
CC(C)NC(=O)N(C(=O)NC(C)C)c1ccc(-c2c(C#N)c3ccc(-c4ccccn4)cc3n2C2CCC2)cc1 [Compound 3226]	193 to 194 °C
CCn1c(-c2ccc3c(c2)CCC(=O)N3)c(C#N)c2ccc(OC(C)C)cc21 [Compound 3227]	148 to 150 °C
CC(OC(=O)Nc1ccc(-c2c(C#N)c3ccc(OCCNS(C)(=O)=O)cc3n2C2CCC2)cc1)C1CC1 (stereo not drawn) [Compound 3228]	92 to 95 °C
CCS(=O)(=O)NCCOc1ccc2c(C#N)c(-c3ccc(NC(=O)OC(C)C4CC4)cc3)n(C3CCC3)c2c1 (stereo not drawn) [Compound 3229]	88 to 91 °C
CCn1c(-c2ccc(NC(=O)OC(C)C)cc2)c(C#N)c2ccc(OC3CCS(=O)(=O)CC3)cc21 [Compound 3230]	253 to 257 °C
CCn1c(-c2ccc(NC(=O)O[C@H](C)C3CC3)cc2)c(C#N)c2ccc(OC3CCS(=O)(=O)CC3)cc21 [Compound 3231]	189 to 196 °C
CC(C)OC(=O)Nc1ccc(-c2c(C#N)c3ccc(OC4CCS(=O)(=O)CC4)cc3n2C2CC2)cc1 [Compound 3232]	278 to 282 °C
C[C@@H](OC(=O)Nc1ccc(-c2c(C#N)c3ccc(OC4CCS(=O)(=O)CC4)cc3n2CC2CC2)cc1)C1CC1 [Compound 3233]	193 to 198 °C
CC(C)n1c(-c2ccc(NC(=O)O[C@H](C)C3CC3)cc2)c(C#N)c2ccc(OC3CCS(=O)(=O)CC3)cc21 [Compound 3235]	249 to 256 °C
CC(C)OC(=O)Nc1ccc(-c2c(C#N)c3ccc(OC4CCS(=O)(=O)CC4)cc3n2C(C)C)cc1 [Compound 3236]	173 to 190 °C
N#Cc1nccnc1Oc1ccc2c(C#N)c(-c3ccc(NS(=O)(=O)CC4CCC4)cc3)n(CC3CC3)c2c1 [Compound 3238]	205 to 208 °C
N#Cc1nccnc1Oc1ccc2c(C#N)c(-c3ccc(NS(=O)(=O)C4CC4)cc3)n(CC3CC3)c2c1 [Compound 3239]	193 to 196 °C
N#Cc1c(-c2ccc(NCCCc3ccccc3)cc2)n(C2CCC2)c2cc(OCCF)ccc12 [Compound 3240]	121 to 124 °C
N#Cc1c(-c2ccc(NCC3CCCCC3)cc2)n(C2CCC2)c2cc(OCCF)ccc12 [Compound 3241]	169 to 173 °C
C[C@@H](OC(=O)Nc1ccc(-c2c(C#N)c3ccc(-c4ncccc4C#N)cc3n2C2CCC2)cc1)C1CC1 [Compound 3243]	183 to 185 °C
CCCS(=O)(=O)Nc1ccc(-c2c(C#N)c3ccc(-c4ncccc4C#N)cc3n2C2CCC2)cc1 [Compound 3244]	223 to 225 °C
C[C@@H](OC(=O)Nc1ccc(-c2c(C#N)c3ccc(OC4CCS(=O)(=O)CC4)cc3n2C2CCCC2)cc1)C1CC1 [Compound 3245]	243 to 250 °C
CC(C)OC(=O)Nc1ccc(-c2c(C#N)c3ccc(OC4CCS(=O)(=O)CC4)cc3n2C2CCCC2)cc1 [Compound 3246]	223 to 227 °C
C[C@@H](OC(=O)Nc1ccc(-c2c(C#N)c3ccc(-c4ncccc4[N+](=O)[O-])cc3n2C2CCC2)cc1)C1CC1 [Compound 3247]	199 to 201 °C
CCCS(=O)(=O)Nc1ccc(-c2c(C#N)c3ccc(Oc4nccnc4C#N)cc3n2CC2CC2)c(C)c1 [Compound 3248]	238 to 241 °C
CCCS(=O)(=O)Nc1ccc(-c2c(C#N)c3ccc(Oc4ncccc4C#N)cc3n2CC2CC2)c(C)c1 [Compound 3249]	235 to 239 °C
CCCS(=O)(=O)Nc1ccc(-c2c(C#N)c3ccc(Oc4ncccc4C#N)cc3n2CC2CC2)cc1 [Compound 3250]	232 to 235 °C

Structure (SMILES)	melting point
N#Cc1c(-c2ccc(Nc3ncccn3)cc2)n(CC2CC2)c2cc(OCCF)ccc12 [Compound 3251]	212 to 213 °C
CCOc1ccc2c(C#N)c(-c3ccc(Nc4ncccn4)cc3)n(CC3CC3)c2c1 [Compound 3252]	223 to 224 °C
Cc1nccnc1Oc1ccc2c(c1)c(C#N)c(-c1ccc(NC(=O)O[C@H](C)C3CC3)cc1)n2C1CCC1 [Compound 3254]	214 to 215 °C
C[C@@H](OC(=O)Nc1ccc(-c2c(C#N)c3cc(Oc4nccnc4Cl)ccc3n2C2CCC2)cc1)C1CC1 [Compound 3255]	209 to 211 °C
C[C@@H](OC(=O)Nc1ccc(-c2c(C#N)c3cc(Oc4ncccc4C#N)ccc3n2C2CCC2)cc1)C1CC1 [Compound 3256]	217 to 218 °C
Cc1cccc(Oc2ccc3c(c2)c(C#N)c(-c2ccc(NC(=O)O[C@H](C)C4CC4)cc2)n3C2CCC2)n1 [Compound 3257]	205 to 208 °C
C[C@@H](OC(=O)Nc1ccc(-c2c(C#N)c3ccc(-c4cccc(N5CCCC5)n4)cc3n2C2CCC2)cc1)C1CC1 [Compound 3258]	250 to 252 °C
C[C@@H](OC(=O)Nc1ccc(-c2c(C#N)c3ccc(-c4cc(N(C)C)ccn4)cc3n2C2CCC2)cc1)C1CC1 [Compound 3259]	203 to 208 °C
C[C@@H](OC(=O)Nc1ccc(-c2c(C#N)c3ccc(Oc4nccnc4C#N)cc3n2C2CC2)cc1)C1CC1 [Compound 3262]	223 °C (dec.)
C[C@@H](OC(=O)Nc1ccc(-c2c(C#N)c3ccc(Oc4ncccc4C#N)cc3n2C2CC2)cc1)C1CC1 [Compound 3263]	183 to 185 °C
C[C@@H](OC(=O)Nc1ccc(-c2c(C#N)c3ccc(OCCN4CCCC4=O)cc3n2C2CCC2)cc1)C1CC1 [Compound 3266]	159 to 162 °C
N#Cc1c(-c2ccc(NC(=O)OC3CCS(=O)(=O)CC3)cc2)n(C2CCC2)c2cc(Oc3ncccn3)ccc12 [Compound 3267]	181 to 212 °C
Cc1csc(Nc2ccc(-c3c(C#N)c4ccc(Oc5ncccn5)cc4n3C3CC3)cc2)n1 [Compound 3268]	223 to 225 °C
N#Cc1c(-c2ccc(NC(=O)OC3CCS(=O)(=O)CC3)cc2)n(C2CC2)c2cc(Oc3ncccn3)ccc12 [Compound 3269]	240 to 246 °C
Cc1csc(Nc2ccc(-c3c(C#N)c4ccc(Oc5ncccc5F)cc4n3C3CC3)cc2)n1 [Compound 3270]	193 to 195 °C
C[C@@H](OC(=O)Nc1ccc(-c2c(C#N)c3ccc(OCCN4C(=O)CCC4=O)cc3n2C2CCC2)cc1)C1CC1 [Compound 3271]	80 to 83 °C
C[C@@H](OC(=O)Nc1ccc(-c2c(C#N)c3ccc(OCCN4C(=O)CN(C)C4=O)cc3n2C2CCC2)cc1)C1CC1 [Compound 3272]	79 to 81 °C
CCCS(=O)(=O)Nc1ccc(-c2c(C#N)c3ccc(Oc4ncccc4C#N)cc3n2C2CCC2)c(C)c1 [Compound 3273]	227 to 230 °C
CCCS(=O)(=O)Nc1ccc(-c2c(C#N)c3ccc(Oc4nccnc4C#N)cc3n2C2CCC2)c(C)c1 [Compound 3274]	222 to 225 °C
C[C@H](NS(=O)(=O)Nc1ccc(-c2c(C#N)c3ccc(Oc4ncccc4C#N)cc3n2C2CCC2)cc1)C1CC1 [Compound 3275]	130 °C (dec.)
C[C@H](NS(=O)(=O)Nc1ccc(-c2c(C#N)c3ccc(Oc4nccnc4C#N)cc3n2C2CCC2)cc1)C1CC1 [Compound 3276]	209 to 212 °C
CC(C)OC(=O)Nc1ccc(-c2c(C#N)c3ccc(-n4ccccc4=O)cc3n2C2CCC2)cc1 [Compound 3277]	267 to 268.5 °C
